Test results: patent publication US4260745A, “3-Halo cephalosporins” (Eli Lilly and Company, priority 1979, dated 1981)
Converted amounts (≈) assume the structure as drawn. Like-named read-outs stand apart in the source and are kept apart here.

Legend:
Format in all cases: cell-based
[1] = system: Bacillus subtilis; experiment: standard disc-plate method, zone of inhibition; settings: Table IV, read-out: Zone of Inhibition (diameter in mm); for zone of inhibition at 10 µg/mL: 0.01 mg./ml.; for zone of inhibition at 100 µg/mL: 0.1 mg./ml.; for zone of inhibition at 1000 µg/mL: 1.0 mg./ml.
Description: (§1) The in vitro antimicrobial activity of the 3-halo cephalosporins is illustrated by the data in the following tables. Table I contains the antimicrobial activity for 7-[2-(2-thienyl)acetamido]-3-chloro-3-cephem-4-carboxylic acid obtained in the standard Disc-plate method. The numerical values are the diameter in millimeters of the zones of inhibition observed with the named organisms.
(§2) In Table IV below, the in vitro antimicrobial activity of 7-[2-(2-thienyl)acetamido]-3-bromo-3-cephem-4-carboxylic acid is presented for several illustrative microorganisms. The data presented were obtained in the standard disc-plate method with the numerical values recording the diameter in millimeters of the zones of inhibition observed with the named microorganisms.

[2] = system: Escherichia coli; experiment: standard disc-plate method, zone of inhibition; settings: Table IV, read-out: Zone of Inhibition (diameter in mm); for zone of inhibition at 100 µg/mL: 0.1 mg./ml.; for zone of inhibition at 1000 µg/mL: 1.0 mg./ml.
Description: as §1, §2

[3] = system: Klebsiella pneumoniae; experiment: standard disc-plate method, zone of inhibition; settings: Table IV, read-out: Zone of Inhibition (diameter in mm)
Description: as §1, §2

[4] = system: Mycobacterium avium; experiment: standard disc-plate method, zone of inhibition; settings: Table IV, read-out: Zone of Inhibition (diameter in mm)
Description: as §1, §2

[5] = system: Proteus vulgaris; experiment: standard disc-plate method, zone of inhibition; settings: Table IV, read-out: Zone of Inhibition (diameter in mm)
Description: as §1, §2

[6] = system: Sarcina lutea; experiment: standard disc-plate method, zone of inhibition; settings: Micrococcus luteus, Table IV, read-out: Zone of Inhibition (diameter in mm)
Description: as §1, §2

[7] = system: Staphylococcus aureus; experiment: standard disc-plate method, zone of inhibition; settings: Table IV, read-out: Zone of Inhibition (diameter in mm)
Description: as §1, §2

[8] = system: Pseudomonas solanacearcum; experiment: standard disc-plate method, zone of inhibition; design: key to Zone of Inhibition (diameter in mm): --: A dash indicates no observed zone of inhibition; hazy zone; settings: Table IV
Description: as §1, §2

[9] = system: Salmonella gallinarum; experiment: standard disc-plate method, zone of inhibition; design: key to Zone of Inhibition (diameter in mm): --: A dash indicates no observed zone of inhibition; hazy zone; settings: Table IV
Description: as §1, §2

[10] = system: Candida albicans; experiment: standard disc-plate method, zone of inhibition; design: key: --: A dash indicates no observed zone of inhibition; hazy zone; settings: Table IV
Description: as §2

[11] = system: Neurospora sp.; experiment: standard disc-plate method, zone of inhibition; design: key: --: A dash indicates no observed zone of inhibition; hazy zone; settings: Table IV
Description: as §2

[12] = system: Pseudomonas aeruginosa; experiment: standard disc-plate method, zone of inhibition; design: key: --: A dash indicates no observed zone of inhibition; hazy zone; settings: Table IV
Description: as §2

[13] = system: Saccharomyces pastorianus; experiment: standard disc-plate method, zone of inhibition; design: key: --: A dash indicates no observed zone of inhibition; hazy zone; settings: Table IV
Description: as §2

[14] = system: Serratia marcescens; experiment: standard disc-plate method, zone of inhibition; design: key: --: A dash indicates no observed zone of inhibition; hazy zone; settings: Table IV
Description: as §2

[15] = system: Trichophyton mentagrophytes; experiment: standard disc-plate method, zone of inhibition; design: key: --: A dash indicates no observed zone of inhibition; hazy zone; settings: Table IV
Description: as §2

[16] = system: Methicillin resistant Staphylococcus; experiment: Gradient Plate technique, MIC; settings: Staphylococcus; Clinical Isolate X400 (methicillin resistant); No Serum; read-out: Minimum Inhibitory Concentration
[17] = system: Aerobacter aerogenes; experiment: Gradient Plate technique, MIC; settings: Klebsiella aerogenes, read-out: Minimum Inhibitory Concentration
Description: (§3) The following Table II lists the minimum inhibitory concentration (MIC) for 7-[2-(2-thienyl)acetamido]-3-chloro-3-cephem-4-carboxylic acid against penicillin resistant Staphylococcus both in the presence of and absence of serum. The MIC values were obtained by the Gradient Plate technique carried out essentially as described by Bryson and Szybalski, Science, 116, 45 (1952).
(§4) In Table III, below, the MIC values for the test compound of Tables I and II against representative gram-negative organisms is presented. The data were obtained by the Gradient Plate technique.
(§5) The minimum inhibitory concentrations for 7-[2-(2-thienyl)acetamido]-3-bromo-3-cephem-4-carboxylic acid against representative gram-negative bacteria is presented in Table VI. The data were obtained by the Gradient Plate Method.
(§6) Tables VII and VIII list the minimum inhibitory concentrations of the test compound effective against representative penicillin resistant Staphylococcus strains, while […] the MIC values obtained against representative gram-negative microorganisms. The data were obtained by the Gradient Plate method.

[18] = system: Escherichia coli; experiment: Gradient Plate technique, MIC; settings: read-out: Minimum Inhibitory Concentration
Description: as §3, §4, §5, §6

[19] = system: Klebsiella pneumoniae; experiment: Gradient Plate technique, MIC; settings: read-out: Minimum Inhibitory Concentration
Description: as §3, §4, §5, §6

[20] = system: Pseudomonas aeruginosa; experiment: Gradient Plate technique, MIC; settings: read-out: Minimum Inhibitory Concentration
Description: as §3, §4, §5, §6

[21] = system: Salmonella heidelberg; experiment: Gradient Plate technique, MIC; settings: Salmonella enterica, read-out: Minimum Inhibitory Concentration
Description: as §3, §4, §5, §6

[22] = system: Serratia marcescens; experiment: Gradient Plate technique, MIC; settings: read-out: Minimum Inhibitory Concentration
Description: as §3, §4, §5, §6

[23] = system: Shigella sp.; experiment: Gradient Plate technique, MIC; settings: read-out: Minimum Inhibitory Concentration
Description: as §3, §4, §5, §6

[24] = system: Escherichia coli; experiment: standard disc-plate method, zone of inhibition; design: key: --: A dash indicates no observed zone of inhibition; hazy zone; settings: 0.01 mg./ml.; Table IV
Description: as §1, §2

O=C(Cc1cccs1)NC1C(=O)N2C(C(=O)O)=C(Br)CS[C@H]12 (some centres unmarked) [7-[2-(2-Thienyl)acetamido]-3-bromo-3-cephem-4-carboxylic acid]
zone of inhibition at 10 µg/mL ([1]; Synthetic medium): 43 mm
zone of inhibition at 10 µg/mL [1]: 23 mm
zone of inhibition at 100 µg/mL ([1]; Synthetic medium): 50 mm
zone of inhibition at 100 µg/mL [1]: 38 mm
zone of inhibition at 1000 µg/mL ([1]; Synthetic medium): 60 mm
zone of inhibition at 1000 µg/mL [1]: 37 mm
zone of inhibition at 10 µg/mL ([2]; 0.01 mg./ml., Synthetic medium, hazy zone (h)): 11 mm
zone of inhibition at 100 µg/mL ([2]; Synthetic medium): 18 mm
zone of inhibition at 100 µg/mL [2]: 14 mm
zone of inhibition at 1000 µg/mL ([2]; Synthetic medium): 27 mm
zone of inhibition at 1000 µg/mL [2]: 23 mm
zone of inhibition at 10 µg/mL ([3]; 0.01 mg./ml.): 11 mm
zone of inhibition at 100 µg/mL ([3]; 0.1 mg./ml.): 19 mm
zone of inhibition at 1000 µg/mL ([3]; 1.0 mg./ml.): 28 mm
zone of inhibition at 10 µg/mL ([4]; 0.01 mg./ml., hazy zone (h)): 33 mm
zone of inhibition at 100 µg/mL ([4]; 0.1 mg./ml., hazy zone (h)): 42 mm
zone of inhibition at 1000 µg/mL ([4]; 1.0 mg./ml.): 23 mm
zone of inhibition at 10 µg/mL ([5]; 0.01 mg./ml., hazy zone (h)): 11 mm
zone of inhibition at 100 µg/mL ([5]; 0.1 mg./ml.): 20 mm
zone of inhibition at 1000 µg/mL ([5]; 1.0 mg./ml.): 28 mm
zone of inhibition at 10 µg/mL ([6]; 0.01 mg./ml.): 17 mm
zone of inhibition at 100 µg/mL ([6]; 0.1 mg./ml.): 33 mm
zone of inhibition at 1000 µg/mL ([6]; 1.0 mg./ml.): 32 mm
zone of inhibition at 10 µg/mL ([7]; 0.01 mg./ml.): 22 mm
zone of inhibition at 100 µg/mL ([7]; 0.1 mg./ml.): 25 mm
zone of inhibition at 1000 µg/mL ([7]; 1.0 mg./ml.): 27 mm
Zone of Inhibition (diameter in mm) ([8]; 0.01 mg./ml.): --
zone of inhibition at 100 µg/mL ([8]; Pseudomonas, 0.1 mg./ml., hazy zone (h), read-out: Zone of Inhibition (diameter in mm)): 20 mm
zone of inhibition at 1000 µg/mL ([8]; Pseudomonas, 1.0 mg./ml., read-out: Zone of Inhibition (diameter in mm)): 31 mm
Zone of Inhibition (diameter in mm) ([9]; 0.01 mg./ml.): --
zone of inhibition at 100 µg/mL ([9]; Salmonella enterica, GALLINARUM, 0.1 mg./ml., read-out: Zone of Inhibition (diameter in mm)): 15 mm
zone of inhibition at 1000 µg/mL ([9]; Salmonella enterica, GALLINARUM, 1.0 mg./ml., read-out: Zone of Inhibition (diameter in mm)): 30 mm
Zone of Inhibition (diameter in mm) ([10]; 0.01 mg./ml.): --
Zone of Inhibition (diameter in mm) ([10]; 0.1 mg./ml.): --
Zone of Inhibition (diameter in mm) ([10]; 1.0 mg./ml.): --
Zone of Inhibition (diameter in mm) ([11]; 0.01 mg./ml.): --
Zone of Inhibition (diameter in mm) ([11]; 0.1 mg./ml.): --
Zone of Inhibition (diameter in mm) ([11]; 1.0 mg./ml.): --
Zone of Inhibition (diameter in mm) ([12]; 0.01 mg./ml.): --
Zone of Inhibition (diameter in mm) ([12]; 0.1 mg./ml.): --
Zone of Inhibition (diameter in mm) ([12]; 1.0 mg./ml.): --
Zone of Inhibition (diameter in mm) ([13]; 0.01 mg./ml.): --
Zone of Inhibition (diameter in mm) ([13]; 0.1 mg./ml.): --
Zone of Inhibition (diameter in mm) ([13]; 1.0 mg./ml.): --
Zone of Inhibition (diameter in mm) ([14]; 0.01 mg./ml.): --
Zone of Inhibition (diameter in mm) ([14]; 0.1 mg./ml.): --
Zone of Inhibition (diameter in mm) ([14]; 1.0 mg./ml.): --
Zone of Inhibition (diameter in mm) ([15]; 0.01 mg./ml.): --
Zone of Inhibition (diameter in mm) ([15]; 0.1 mg./ml.): --
Zone of Inhibition (diameter in mm) ([15]; 1.0 mg./ml.): --
MIC [16]: > 20 µg/mL
MIC [17]: 1 µg/mL (≈ 2.48 µM)
MIC [18]: 20.8 µg/mL (≈ 51.6 µM)
MIC [19]: 1 µg/mL (≈ 2.48 µM)
MIC [20]: > 200 µg/mL
MIC [21]: 1 µg/mL (≈ 2.48 µM)
MIC [22]: > 200 µg/mL
MIC [23]: 19.8 µg/mL (≈ 49.1 µM)
Zone of Inhibition (diameter in mm) [24]: --
